Measured values as given in article PMC9603864, “Novel Class of Proteasome Inhibitors: In Silico and In Vitro Evaluation of Diverse Chloro(trifluoromethyl)aziridines” (International Journal of Molecular Sciences, 2022).
Like-named read-outs stand apart in the source and are kept apart here.

Key:
Format in all cases: biochemical
[1] = molecular target: T1, 20S proteasome β5 subunit (chymotrypsin-like activity) (Homo sapiens, UniProt P28074); test: fluorometric ChT-L assay with Suc-LLVY-AMC, continuous; IC50 […], Ki by Cheng-Prusoff
T1 construct: gene PSMB5; whole human 20S proteasome (Biomol); with other subunits of the 20S proteasome
T1 sequence (P28074 60-263): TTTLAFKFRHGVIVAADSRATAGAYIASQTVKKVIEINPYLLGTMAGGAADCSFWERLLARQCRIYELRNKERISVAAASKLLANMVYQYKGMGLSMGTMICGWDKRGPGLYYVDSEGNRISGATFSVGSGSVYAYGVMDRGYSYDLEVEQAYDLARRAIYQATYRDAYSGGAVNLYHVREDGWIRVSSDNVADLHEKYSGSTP

[2] = molecular target: T1, 20S proteasome β5 subunit (chymotrypsin-like activity); test: as above; remark: listed apart in the source
[3] = molecular target: T1, 20S proteasome β5 subunit (chymotrypsin-like activity); test: fluorometric ChT-L screening assay, % inhibition at […]; conditions: read-out: ChT-L Activity (% Inhibition at 20 μM) ^1

| Compound | inhibition at 20 µM [3] [%] | further results |
| --- | --- | --- |
| FC(F)(F)C1(Cl)CN1c1ccc(N=Nc2ccccc2)cc1 (centres unmarked) [compound 22, CTMA 22] | – | Ki [1]: 1.6 ± 0.08 µM |
| FC(F)(F)C1(Cl)CN1c1ccc2cc3ccccc3cc2c1 (centres unmarked) [compound 21, CTMA 21] | – | Ki [2]: 1.6 ± 0.13 µM |
| O=C1CCCN1c1cccc(N2CC2(Cl)C(F)(F)F)c1 (centres unmarked) [compound 25, CTMA 25] | 34 ± 1.4 | – |
| N#Cc1ccc(N2CC2(Cl)C(F)(F)F)cc1 (centres unmarked) [compound 18, CTMA 18] | 37 ± 0.5 | – |
| FC(F)(F)C1(Cl)CN1c1ccc(N2CCOCC2)cc1 (centres unmarked) [compound 23, CTMA 23] | 41 ± 1.2 | – |
